These results are taken from US10758534B2 (Vertex Pharmaceuticals Incorporated, priority 2014, dated 2020).

For the assay, the target named is T1, F508del (Homo sapiens, UniProt P13569, DEL508-508).
T1 construct: expressed in transfected cells
T1 sequence (P13569 with tags, fused parts or gaps DEL508-508): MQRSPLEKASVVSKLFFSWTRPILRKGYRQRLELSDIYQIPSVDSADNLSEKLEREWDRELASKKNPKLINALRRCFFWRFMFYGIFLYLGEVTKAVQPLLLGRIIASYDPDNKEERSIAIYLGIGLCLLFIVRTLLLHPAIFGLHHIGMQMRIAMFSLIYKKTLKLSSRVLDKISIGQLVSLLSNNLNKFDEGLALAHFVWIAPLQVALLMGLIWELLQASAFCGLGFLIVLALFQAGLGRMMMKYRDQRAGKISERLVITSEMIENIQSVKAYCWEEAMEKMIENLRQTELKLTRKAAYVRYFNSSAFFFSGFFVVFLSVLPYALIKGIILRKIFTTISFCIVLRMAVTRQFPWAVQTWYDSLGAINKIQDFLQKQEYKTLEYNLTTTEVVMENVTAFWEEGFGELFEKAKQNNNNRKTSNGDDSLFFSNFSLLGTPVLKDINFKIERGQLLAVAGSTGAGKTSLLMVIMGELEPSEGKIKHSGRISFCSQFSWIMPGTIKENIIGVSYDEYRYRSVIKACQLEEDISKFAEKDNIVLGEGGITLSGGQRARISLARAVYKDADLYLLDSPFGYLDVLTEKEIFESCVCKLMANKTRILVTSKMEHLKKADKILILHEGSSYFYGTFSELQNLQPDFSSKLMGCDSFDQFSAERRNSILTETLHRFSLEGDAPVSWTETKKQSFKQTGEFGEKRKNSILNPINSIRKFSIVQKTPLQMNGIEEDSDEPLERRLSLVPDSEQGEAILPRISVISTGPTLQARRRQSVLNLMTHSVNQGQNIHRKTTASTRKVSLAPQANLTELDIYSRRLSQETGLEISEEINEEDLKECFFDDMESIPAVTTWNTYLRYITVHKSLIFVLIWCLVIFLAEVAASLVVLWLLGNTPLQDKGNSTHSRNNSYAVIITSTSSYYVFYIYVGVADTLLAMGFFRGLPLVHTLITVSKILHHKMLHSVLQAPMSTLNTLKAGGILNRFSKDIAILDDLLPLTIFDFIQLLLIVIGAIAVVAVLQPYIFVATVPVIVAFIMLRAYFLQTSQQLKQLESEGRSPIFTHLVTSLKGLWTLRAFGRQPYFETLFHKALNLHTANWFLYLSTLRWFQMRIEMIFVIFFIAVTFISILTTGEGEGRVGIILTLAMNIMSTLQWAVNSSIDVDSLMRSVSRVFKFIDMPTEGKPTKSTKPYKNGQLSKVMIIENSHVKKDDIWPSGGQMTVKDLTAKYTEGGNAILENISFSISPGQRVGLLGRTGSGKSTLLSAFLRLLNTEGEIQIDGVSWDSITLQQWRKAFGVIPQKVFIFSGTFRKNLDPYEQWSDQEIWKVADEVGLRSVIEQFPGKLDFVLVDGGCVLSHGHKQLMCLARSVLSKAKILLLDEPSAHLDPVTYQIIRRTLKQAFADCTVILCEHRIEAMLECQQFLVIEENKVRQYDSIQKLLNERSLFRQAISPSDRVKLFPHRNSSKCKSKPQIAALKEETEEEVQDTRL
The assay is described as follows: Protocol 1: membrane potential optical assay (FLIPR III, voltage sensing dye), identification of potentiator compounds. In kind it is cell-based. The note with it: Table 3, compounds of Table 1. The method in brief:
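NIH 3T3 fibroblasts stably expressing F508del were cultured at 27° C for 24 hrs for temperature correction, then treated with compounds or DMSO and loaded with a voltage-sensing redistribution dye. Forskolin added with a Cl⁻ gradient activated the channel; membrane-potential fluorescence on FLIPR III reported increased gating.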
`CC(C)COc1cc(F)cc(-c2ccc(C(=O)NS(=O)(=O)N3CCCC(C)(N)C3)c(N3CC(C)CC3(C)C)n2)c1` (stereo not shown) [Compound 1445, N-[(3-amino-3-methyl-1-piperidyl)sulfonyl]-6-(3-fluoro-5-isobutoxy-phenyl)-2-(2,2,4-trimethylpyrrolidin-1-yl)pyridine-3-carboxamide]: the EC30 entry is reported as “+++ (“+++” means <3 uM)”.

Regarding `Cc1cccc(C)c1Oc1nc(-c2cc(F)cc(OCC(C)(C)O)c2)ccc1C(=O)NS(=O)(=O)c1cccc(N)n1` [Compound 1890, N-[(6-amino-2-pyridyl)sulfonyl]-2-(2,6-dimethylphenoxy)-6-[3-fluoro-5-(2-hydroxy-2-methyl-propoxy)phenyl]pyridine-3-carboxamide], the EC30 entry is “++ (“++” means between 3 uM and 10 uM)”.

With `Cc1ccc(-c2nc(C(C)(C)C)ccc2C(=O)NS(=O)(=O)c2ccc(O)cc2)cc1` [Compound 809, 6-tert-butyl-N-(4-hydroxyphenyl)sulfonyl-2-(p-tolyl)pyridine-3-carboxamide], the EC30 entry was “++ (“++” means between 3 uM and 10 uM)”.

Consider `CC(=O)N1CC=C(c2ccc(C(=O)NS(=O)(=O)c3cccc(N)n3)c(Oc3c(C)cc(C)cc3C)n2)CC1` [Compound 1649, 6-(1-acetyl-3,6-dihydro-2H-pyridin-4-yl)-N-[(6-amino-2-pyridyl)sulfonyl]-2-(2,4,6-trimethylphenoxy)pyridine-3-carboxamide], for which the EC30 entry is “++ (“++” means between 3 uM and 10 uM)”.

Regarding `COc1ccc(-c2cc(C(=O)NS(=O)(=O)c3cccc(N)c3)n(C(C)c3ccccc3)n2)cc1` (stereo not shown) [Compound 1024, N-(3-aminophenyl)sulfonyl-5-(4-methoxyphenyl)-2-(1-phenylethyl)pyrazole-3-carboxamide], the EC30 result was “++ (“++” means between 3 uM and 10 uM)”.

Regarding `CC(C)Oc1ccc(-c2ccc(C(=O)NS(=O)(=O)c3cccc(N)n3)c(N3CC4CCCC4C3)n2)cn1` (stereo not shown) [Compound 1107, 2-(3,3a,4,5,6,6a-hexahydro-1H-cyclopenta[c]pyrrol-2-yl)-N-[(6-amino-2-pyridyl)sulfonyl]-6-(6-isopropoxy-3-pyridyl)pyridine-3-carboxamide], the EC30 entry is listed as “+++ (“+++” means <3 uM)”.

With `CC1CN(c2nc(-c3ccc(OC(C)C)cc3)ccc2C(=O)NS(=O)(=O)c2cccc(N)n2)C(C)(C)C1` (stereo not shown) [Compound 1020, N-[(6-amino-2-pyridyl)sulfonyl]-6-(4-isopropoxyphenyl)-2-(2,2,4-trimethylpyrrolidin-1-yl)pyridine-3-carboxamide], the EC30 result was “+++ (“+++” means <3 uM)”.

As for `CC(C)c1ccccc1Oc1nc(C(C)(C)C)ccc1C(=O)NS(=O)(=O)c1cccc(N)n1` [Compound 1031, N-[(6-amino-2-pyridyl)sulfonyl]-6-tert-butyl-2-(2-isopropylphenoxy)pyridine-3-carboxamide], the EC30 entry was “+++ (“+++” means <3 uM)”.

Regarding `COCC1CCCN(c2nc(-c3cc(F)cc(OCC(C)C)c3)ccc2C(=O)NS(=O)(=O)c2ccn[nH]2)C1` (stereo not shown) [Compound 1028, 6-(3-fluoro-5-isobutoxy-phenyl)-2-[3-(methoxymethyl)-1-piperidyl]-N-(1H-pyrazol-5-ylsulfonyl)pyridine-3-carboxamide], the EC30 result is “++ (“++” means between 3 uM and 10 uM)”.

As to `Cc1ccc(-c2ccc(C(=O)NS(=O)(=O)c3cccc(N)n3)c(N3CCC(C)CC3)n2)cc1` [Compound 802, N-[(6-amino-2-pyridyl)sulfonyl]-2-(4-methyl-1-piperidyl)-6-(p-tolyl)pyridine-3-carboxamide], the EC30 result is reported as “+++ (“+++” means <3 uM)”.

Consider `COc1ccc(-c2cnc(N3CC(C)CC3(C)C)c(C(=O)NS(=O)(=O)c3cccc(N)n3)c2)cn1` (stereo not shown) [Compound 1886, N-[(6-amino-2-pyridyl)sulfonyl]-5-(6-methoxy-3-pyridyl)-2-(2,2,4-trimethylpyrrolidin-1-yl)pyridine-3-carboxamide], for which the EC30 entry was “++ (“++” means between 3 uM and 10 uM)”.

On to `CC1CN(c2ncccc2C(=O)NS(=O)(=O)c2cccc(N(C)Cc3ccccc3)n2)C(C)(C)C1` (stereo not shown) [Compound 1827, N—[[6-[benzyl(methyl)amino]-2-pyridyl]sulfonyl]-2-(2,2,4-trimethylpyrrolidin-1-yl)pyridine-3-carboxamide], for which the EC30 result is “+++ (“+++” means <3 uM)”.

Turning to `CC(C)COc1cc(-c2ccc(C(=O)NS(=O)(=O)c3cccc(N)n3)c(N3CC(C)CC3(C)C)n2)ccn1` (stereo not shown) [Compound 1192, N-[(6-amino-2-pyridyl)sulfonyl]-6-(2-isobutoxy-4-pyridyl)-2-(2,2,4-trimethylpyrrolidin-1-yl)pyridine-3-carboxamide], the EC30 entry is given as “+++ (“+++” means <3 uM)”.

For the molecule `CCOc1cccc2c1CN(Cc1c(C)cc(C)cc1C)[C@@]2(C)C(=O)NS(=O)(=O)c1cccc(N)n1` [Compound 1582, (1R)—N-[(6-amino-2-pyridyl)sulfonyl]-4-ethoxy-1-methyl-2-[(2,4,6-trimethylphenyl)methyl]isoindoline-1-carboxamide], the EC30 result was “+++ (“+++” means <3 uM)”.

With `CC(C)Oc1ccc(C(=O)NS(=O)(=O)c2cccc(N)n2)c(N2C[C@@H](C)CC2(C)C)n1` [Compound 1573, N-[(6-amino-2-pyridyl)sulfonyl]-6-isopropoxy-2-[(4S)-2,2,4-trimethylpyrrolidin-1-yl]pyridine-3-carboxamide], the EC30 entry was “+++ (“+++” means <3 uM)”.

Turning to `CC(C)Oc1ccc(-c2ccc(C(=O)NS(=O)(=O)c3cccc(N)n3)c(N3CCC[C@H](c4ccccc4)C3)n2)cn1` [Compound 1209], the EC30 entry is on record as “+++ (“+++” means <3 uM)”.

As for `CC(C)COc1cccc(-c2ccc(C(=O)NS(=O)(=O)c3cccc(N)n3)c(N3[C@H](C)CC[C@@H]3C)n2)c1` [Compound 957, N-[(6-amino-2-pyridyl)sulfonyl]-2-[(2S,5R)-2,5-dimethylpyrrolidin-1-yl]-6-(3-isobutoxyphenyl)pyridine-3-carboxamide], the EC30 entry is given as “+++ (“+++” means <3 uM)”.

`Cc1cc(F)cc(-c2ccc(C(=O)NS(=O)(=O)N3CC[C@H](N)C3)c(N3C[C@@H](C)CC3(C)C)n2)c1` [Compound 1819, N-[(3S)-3-aminopyrrolidin-1-yl]sulfonyl-6-(3-fluoro-5-methyl-phenyl)-2-[(4S)-2,2,4-trimethylpyrrolidin-1-yl]pyridine-3-carboxamide]: the EC30 entry is “++ (“++” means between 3 uM and 10 uM)”.

`CC(C)COc1cc(F)cc(-c2ccc(C(=O)NS(=O)(=O)c3cccc(N)n3)c(N3CC4CCC3CC4)n2)c1` [Compound 1657, N-[(6-amino-2-pyridyl)sulfonyl]-2-(3-azabicyclo[2.2.2]octan-3-yl)-6-(3-fluoro-5-isobutoxy-phenyl)pyridine-3-carboxamide]: the EC30 result is recorded as “+++ (“+++” means <3 uM)”.

`CC1CN(c2nc(-c3cnc(OC(C)C)nc3)ccc2C(=O)NS(=O)(=O)c2cccc(N)n2)C(C)(C)C1` (stereo not shown) [Compound 844, N-[(6-amino-2-pyridyl)sulfonyl]-6-(2-isopropoxypyrimidin-5-yl)-2-(2,2,4-trimethylpyrrolidin-1-yl)pyridine-3-carboxamide]: the EC30 entry was “++ (“++” means between 3 uM and 10 uM)”.

`CCOc1cccc2c1CN(Cc1c(C)cc(C)cc1C)C2(C)C(=O)NS(=O)(=O)c1cccc(F)c1OC` (stereo not shown) [Compound 1403, 4-ethoxy-N-(3-fluoro-2-methoxy-phenyl)sulfonyl-1-methyl-2-[(2,4,6-trimethylphenyl)methyl]isoindoline-1-carboxamide]: the EC30 entry is reported as “+++ (“+++” means <3 uM)”.

On to `Cc1cc(C)c(Oc2nc(C3CCOC(C)(C)C3)ccc2C(=O)NS(=O)(=O)c2cccc(N)n2)c(C)c1` (stereo not shown) [Compound 1466, N-[(6-amino-2-pyridyl)sulfonyl]-6-(2,2-dimethyltetrahydropyran-4-yl)-2-(2,4,6-trimethylphenoxy)pyridine-3-carboxamide], for which the EC30 result is “++ (“++” means between 3 uM and 10 uM)”.

As to `Cc1cc(C)c(Oc2nc(-c3cccc(F)c3F)ccc2C(=O)NS(=O)(=O)c2ccc[nH]c2=O)c(C)c1` [Compound 1296, 6-(2,3-difluorophenyl)-N-[(2-oxo-1H-pyridin-3-yl)sulfonyl]-2-(2,4,6-trimethylphenoxy)pyridine-3-carboxamide], the EC30 entry was “+ (“+” means greater than 10 uM)”.

Regarding `CC(C)COc1cc(F)cc(-c2ccc(C(=O)NS(=O)(=O)c3cccc(N)n3)c(OCCCCc3ccccn3)n2)c1` [Compound 1688, N-[(6-amino-2-pyridyl)sulfonyl]-6-(3-fluoro-5-isobutoxy-phenyl)-2-[4-(2-pyridyl)butoxy]pyridine-3-carboxamide], the EC30 entry is recorded as “+++ (“+++” means <3 uM)”.

Regarding `CC(C)Oc1ccc(-c2ccc(C(=O)NS(=O)(=O)c3cccc(N)n3)c(N3CCCC34CCC4)n2)cn1` [Compound 987, N-[(6-amino-2-pyridyl)sulfonyl]-2-(8-azaspiro[3.4]octan-8-yl)-6-(6-isopropoxy-3-pyridyl)pyridine-3-carboxamide], the EC30 entry is “+++ (“+++” means <3 uM)”.

In the case of `CCOc1cncc(-c2ccc(C(=O)NS(=O)(=O)c3cccc(N)n3)c(N3CC(C)CC3(C)C)n2)n1` (stereo not shown) [Compound 1252, N-[(6-amino-2-pyridyl)sulfonyl]-6-(6-ethoxypyrazin-2-yl)-2-(2,2,4-trimethylpyrrolidin-1-yl)pyridine-3-carboxamide], the EC30 entry is listed as “+++ (“+++” means <3 uM)”.

Turning to `CC(C)COc1cc(F)cc(-c2ccc(C(=O)NS(=O)(=O)c3cccc(N)n3)c(N3CCCC4(CC4)C3)n2)c1` [Compound 953, N-[(6-amino-2-pyridyl)sulfonyl]-2-(7-azaspiro[2.5]octan-7-yl)-6-(3-fluoro-5-isobutoxy-phenyl)pyridine-3-carboxamide], the EC30 entry is recorded as “+++ (“+++” means <3 uM)”.

Consider `CCOCCOc1cc(C)cc(-c2ccc(C(=O)NS(=O)(=O)c3cccc(N)n3)c(N3C[C@@H](C)CC3(C)C)n2)n1` [Compound 1700, N-[(6-amino-2-pyridyl)sulfonyl]-6-[6-(2-ethoxyethoxy)-4-methyl-2-pyridyl]-2-[(4S)-2,2,4-trimethylpyrrolidin-1-yl]pyridine-3-carboxamide], for which the EC30 entry was “+++ (“+++” means <3 uM)”.
